Assay results published in paper PMC6015500 (ACS combinatorial science, 2015).
Where two headings read alike, the source gives them in different places.

Tests used:
[1] = system: HCV pseudoparticle (HCVpp) GT 1b; assay: HCVpp entry assay, genotype 1b; type: cell-based, hepatitis C virus (HCV); conditions: tested at 10 µM; % of DMSO control
[2] = system: HCV pseudoparticle (HCVpp) GT 1a; assay: HCVpp entry assay, genotype 1a; type: cell-based, hepatitis C virus (HCV); conditions: tested at 10 µM; % of DMSO control
VSVpp = type: cell-based
[3] = system: HCV replicon cell line of genotype 1b; assay: HCV subgenomic replicon assay, genotype 1b; type: cell-based, hepatitis C virus (HCV); conditions: tested at 10 µM; % of DMSO control
in vitro [4] = type: cell-based; conditions: human
[5] = system: single-round infectious HCV (HCVsc); assay: HCV single-cycle assay; type: cell-based, hepatitis C virus (HCV); conditions: tested at 10 µM; % of DMSO control
[6] = system: wild-type HCV (HCVcc, genotype 2a); assay: HCVcc wild-type infection assay; type: cell-based, hepatitis C virus (HCV); conditions: Huh7.5.1 cells, compounds at 10 µM, 48 h, quantitative real-time PCR
[7] = system: HCV-Luc (recombinant HCV carrying the Renilla luciferase reporter); assay: HCV-Luc infection assay; type: cell-based, hepatitis C virus (HCV)
[8] = system: transient genotype 1a subgenomic replicon in Huh7.5.1 cells; assay: Transient genotype 1a replicon assay; type: cell-based, hepatitis C virus (HCV); conditions: tested at 10 µM; % of DMSO control
[9] = Double-sink PAMPA permeability; type: in vitro ADME
[10] = system: HCV replicon cell line of genotype 2a; assay: HCV subgenomic replicon assay, genotype 2a; type: cell-based, hepatitis C virus (HCV); conditions: tested at 10 µM; % of DMSO control
[11] = In vitro microsomal stability; type: in vitro ADME; conditions: CD-1, mouse, liver microsomes
in vitro [12] = type: cell-based; conditions: human; remark: listed apart in the source
Huh7.5.1 cells = assay: in vitro; type: cell-based

| Structure (SMILES) | HCVpp DMSO (%) GT lb [1] [%] | HCVpp DMSO (%) GT la [2] [%] | VSVpp DMSO (%) (VSVpp) | HCV Replicon DMSO (%) GT lb [3] [%] | CC50 (in vitro [4]) [nM] | HCVsc DMSO (%) [5] [%] | extracellular and intracellular viral RNA levels [6] | EC50 ([7]; Huh-7.5.1, 48 h, read-out: HCV-Luc EC50) [nM] | EC50 ([7]; Huh-7.5.1, read-out: HCV-Luc EC50) [nM] | Selective Index (SI) ([7]; SI = CC50/EC50, Huh7.5.1 cells) | HCV Replicon DMSO (%) Transient la [8] [%] | Papp ([9]; PAMPA) [×10⁻⁶ cm/s] | permeability ([9]; double-sink PAMPA) | HCV Replicon DMSO (%) GT 2a [10] [%] | half-life [11] [min] | CC50 at 48 h (in vitro [12]) [nM] | inhibitory activity in the HCV-Luc assay [7] | EC50 ([7]; read-out: HCV-Luc EC50, Huh7.5.1 cells, 48 h, Renilla luciferase signal) [nM] | CC50 (Huh7.5.1 cells) [nM] |
| --- | --- | --- | --- | --- | --- | --- | --- | --- | --- | --- | --- | --- | --- | --- | --- | --- | --- | --- | --- |
| COc1ccc(-c2oc3ccc(-c4ccc5c(c4)OCO5)nc3c2C#CC2(O)CCCCC2)cc1 [10{21}, 1-((5-(Benzo[d][1,3]dioxol-5-yl)-2-(4-methoxyphenyl)furo-[3,2-b]pyridin-3-yl)ethynyl)cyclohexanol] | 78.1 | 41.2 | 121 | 82.1 | 92300 | 20.0 | most promising activity | 184 | 180 | >543 | 194 | < 15.4 | moderate permeability | 121 | > 30 | > 100000 | – | – | – |
| COc1ccc(-c2ccc3oc(-c4ccc(OC)cc4)c(C#CCCO)c3c2)cc1 [2{1}] | – | – | – | – | – | – | – | – | – | – | – | – | – | – | – | – | low-micromolar | 980 | 70900 |
